In US20010053797A1 (priority 1998, published 2001):
Entries after “also recorded” stand apart in the source; their conditions may differ. Where two headings read alike, the source gives them in different places.

Experiments:
[1] = test system: murine cortical cell cultures (neurons), NMDA receptor; test: NMDA neurotoxicity in murine cortical cell cultures, medium LDH; type: cell-based, Swiss Webster mice; conditions: for LDH release: scaled to 300 μM NMDA (=100); for effect on potentiation of NMDA neurotoxicity by mercaptoethanol: NMDA plus 1 mM mercaptoethanol plus equimolar compound; for effect on NMDA neurotoxicity (neuronal death, medium LDH): compound added with low micromolar NMDA, 20-25 h; for effect on potentiation of NMDA neurotoxicity by GSH: NMDA plus GSH plus compound
Procedure: Cultures were incubated in 5% CO2 at 37° C.
Experiments were conducted at 13-15 days in vitro.

[2] = test system: cultured cerebellar granule cells; conditions: cited from earlier work
[3] = test system: murine cortical cell cultures (neurons), AMPA and kainate receptors; conditions: listed as reduced glutathione
Procedure: (§1) After halothane anesthesia and cervical dislocation, cortical hemispheres were removed and incubated in 0.075% (wt/vol) acetylated trypsin (Sigma T-6763) for 1 h at 37° C. Tissue was dissociated by multiple passages through a narrow bore (flamed) Pasteur pipette, and the cell suspension was plated on confluent glial cultures at a density of 2.25-2.5 hemispheres per 24 well plate.
(§2) Experiments were conducted at 13-15 days in vitro. Cultures were exposed to excitatory amino acids in serum-free MEM containing 10 mM glucose.
Since astrocytes are not vulnerable to excitotoxic injury in this culture system (Choi D. W., Maulucci-Gedde M. and Kriegstein A. R. Glutamate neurotoxicity in cortical cell culture. J Neurosci 7: 357-368, 1987), the contribution of astrocytic LDH to the LDH signal is negligible.
Differences between groups were assessed with the Tukey-Kramer or Dunnett post hoc tests.

[4] = test system: NMDA receptor-mediated neurotoxicity; conditions: cited from earlier work
native NMDA receptor = molecular target: T1, native NMDA receptor (Rattus norvegicus, UniProt P35439); conditions: cited from earlier work
T1 construct: host or cells: cultured forebrain, cortical or retinal neurons (endogenous receptor)

[5] = test system: NR1-NR2B, -NR2C, or -NR2D receptors; conditions: millimolar concentrations of GSH; cited from earlier work
cortical cell culture = conditions: low micromolar concentrations; cited from earlier work
[6] = test system: cortical neurons and glia; test: Chemical hypoxia (azide) and glucose deprivation in cortical cell cultures, medium LDH; type: cell-based, Swiss Webster mice; conditions: for effect on potentiation of azide toxicity/glucose deprivation by GSH: 3 mM azide plus 100 μM GSH plus compound; for effect on potentiation of azide toxicity/glucose deprivation by GSH / effect on potentiation of azide toxicity by mercaptoethanol: 30 min; for effect on azide neurotoxicity in glucose-free buffer (neuronal death): 3 mM azide 30 min with compound, LDH 21-25 h later; for effect on potentiation of azide toxicity by mercaptoethanol: 3 mM azide plus 100 μM mercaptoethanol plus compound
Procedure: Primary cultures containing both cortical neurons and glia were prepared from gravid Swiss Webster mice as previously described. (Regan , R. F. and Choi, D. W., The effect of NMDA, AMPA/kainate, and calcium channel antagonists on traumatic cortical neuronal injury in culture, Brain Res, 633: 236-242, 1994). Plating medium consisted of Eagle's minimal essential medium (MEM), 5% equine serum, 5% fetal bovine serum, 2 mM glutamine, and 23 mM glucose. Cultures were incubated in 5% CO2 at 37° C. Two-thirds of the culture medium was exchanged twice weekly with MEM containing 10% equine serum, 2 mM glutamine, and 23 mM glucose. Glial cell division was inhibited at 4-7 days in vitro with 10^−5 M cytosine arabinoside.
Chemical hypoxia was induced with 3 mM azide, which unlike cyanide is not volatile and has little effect on copper-zinc and manganese superoxide dismutases at low millimolar concentrations. (Misra, H. P. and Fridovich, I., Inhibition of superoxide dismutases by azide, Arch Biochem Biophys 189: 317-322, 1978). Experiments were conducted at 13-16 days in vitro in a glucose-free buffer containing 116 mM NaCl, 5.4 mM KCl, 1.8 mM CaCl2, 1 mM NaH2PO4, 26.2 mM NaHCO3, 0.8 mM MgSO4, and amino acids (MEM amino acids, Sigma Chemical Co., St. Louis, Mo., U.S.A.). After incubation for 30-90 min at 37° C. in 5% CO2, cultures were washed into MEM containing 10 mM glucose and were returned to the incubator.
Cell death was estimated 21-25 h after azide exposure by inspection under phase-contrast microscopy, and was quantified by assaying lactate dehydrogenase (LDH) activity in the medium, as previously described. (Regan, R. F. and Panter, S. S., Traumatic neuronal injury in cortical cell culture is attenuated by 21-aminosteroids, Brain Res, 682: 144-150, 1995). Medium LDH in this culture system is an accurate marker of neuronal death that correlates well with cell counts. (Koh, J. Y. and Choi, D. W., Vulnerability of cultured cortical neurons to damage by excitotoxins: Differential susceptibility of neurons containing NADPH-diaphorase, J Neurosci 8: 2153-2163, 1988). […] (Koh, J. Y. and Choi, D. W., 1988). The LDH activity in the medium of sister cultures exposed to sham wash alone was subtracted from all values to obtain the LDH signal associated specifically with neurotoxin exposure.
Data were analyzed by one-way analysis of variance. Differences between groups and a single mean were assessed with the Dunnett multiple comparisons test; when groups were compared to more than one mean, the Tukey-Kramer post hoc test was used.

GSH binding sites = conditions: cited from earlier work
[7] = test system: murine cortical cell cultures; conditions: millimolar concentrations, 20-25 h, 0 μM NMDA
Procedure: as §1, §2

Molecule: N[C@@H](CCC(=O)N[C@@H](CS)C(=O)NCC(=O)O)C(=O)O [GSH, glutathione]
- LDH release ([1]; 8 μM NMDA plus GSH): 61.09±3.83%
- effect on neuronal death at high NMDA concentration ([1]; 24 μM NMDA): not altered
- effect on potentiation of NMDA neurotoxicity by mercaptoethanol [1]: did not further increase neuronal death; also recorded: tended to inhibit the effect of mercaptoethanol; also recorded: did not further enhance NMDA neurotoxicity
- effect on potentiation of NMDA neurotoxicity by mercaptoethanol ([1]; listed as reduced glutathione): did not further increase NMDA-induced neuronal death
- effect on NMDA neurotoxicity (neuronal death, medium LDH) [1]: selectively potentiates NMDA neurotoxicity; also recorded: markedly potentiated; also recorded: specifically potentiated NMDA neurotoxicity; also recorded: selectively potentiate
- effect on NMDA neurotoxicity (neuronal death, medium LDH) ([1]; listed as glutathione): marked potentiation
- effect on NMDA neurotoxicity (neuronal death, medium LDH) ([1]; listed as reduced glutathione): markedly enhanced; also recorded: markedly enhance the vulnerability
- basal 45Ca2+ influx [2]: did not alter
- glutamate and NMDA-induced calcium influx [2]: increased
- effect on neurotoxicity of kainic acid [3]: unaffected
- effect on NMDA neurotoxicity [4]: attenuated NMDA neurotoxicity
- effect on native NMDA receptor responses (native NMDA receptor): no effect
- effect on responses to glutamate (whole cell currents) [5]: not

Molecule: CCN(CC)c1ccc(N(CC)CC)c(N2CCN(CC(=O)[C@H]3[C@H](C)C[C@H]4[C@@H]5CCC6=CC(=O)C=C[C@]6(C)C5=CC[C@@]43C)CC2)n1.Cl [U74500A]
- effect on potentiation of NMDA neurotoxicity by GSH [1]: GSH also potentiated injury in the presence
- effect on hemoglobin toxicity (cortical cell culture): blocks hemoglobin toxicity

Molecule: C[C@]12N[C@H](Cc3ccccc31)c1ccccc12 [MK-801]
- LDH release ([1]; 8 μM NMDA plus GSH plus MK-801): −1.24±1.58%
- cell death due to 8 μM NMDA plus GSH ([1]; 8 μM NMDA plus GSH plus compound): completely blocked
- effect on potentiation of azide toxicity/glucose deprivation by GSH [6]: blocked

Molecule: O[C@H](CS)[C@H](O)CS (racemic) [dithiothreitol]
- effect on azide neurotoxicity in glucose-free buffer (neuronal death) [6]: concentration-toxicity profile that was similar to GSH

Molecule: CCCCCCSC[C@H](NC(=O)CC[C@H](N)C(=O)O)C(=O)NCC(=O)O [SHG, S-hexylglutathione]
- effect on potentiation of NMDA neurotoxicity by (sulfhydryl) reducing agents [1]: antagonized
- effect on potentiation of NMDA neurotoxicity by mercaptoethanol [1]: blocked the effect of mercaptoethanol
- effect on potentiation of NMDA neurotoxicity by mercaptoethanol ([1]; listed as S-hexylglutathione): completely blocked
- effect on potentiation of NMDA neurotoxicity by GSH [1]: completely blocked
- effect on potentiation of NMDA neurotoxicity by GSH ([1]; listed as S-hexylglutathione): completely blocked; also recorded: antagonized the effect of GSH
- effect on NMDA neurotoxicity (neuronal death, medium LDH) [1]: no significant effect; also recorded: did not attenuate NMDA neurotoxicity per se
- effect on NMDA neurotoxicity (neuronal death, medium LDH) ([1]; listed as S-hexylglutathione): inactive per se
- effect on potentiation of NMDA neurotoxicity by (sulfhydryl) reducing agents ([1]; listed as S-hexylglutathione): blocked the potentiation
- effect on azide neurotoxicity in glucose-free buffer (neuronal death) [6]: ineffective
- effect on azide neurotoxicity in glucose-free buffer (neuronal death) ([6]; listed as S-hexylglutathione): not increased
- effect on potentiation of azide toxicity/glucose deprivation by GSH [6]: attenuates
- effect on potentiation of azide toxicity by mercaptoethanol [6]: attenuates
- neuroprotection against azide plus GSH or mercaptoethanol ([6]; compound at 1-3 mM): decreasing neuronal death moderately
- effect on glutathione binding (GSH binding sites; listed as S-hexylglutathione): displace glutathione binding; also recorded: selectively inhibited

Molecule: CN[C@H](CC(=O)O)C(=O)O [NMDA, N-methyl-D-aspartate]
- neuronal death by NMDA ([1]; 24 μM NMDA): widespread neuronal death
- neuronal death by NMDA ([1]; 300 μM NMDA, sister cultures (=100)): essentially complete neuronal death without injuring glia

Molecule: NS(=O)(=O)c1cccc2c1c([N+](=O)[O-])cc1[nH]c(=O)c(=O)[nH]c12 [NBQX, 1,2,3,4-tetrahydro-6-nitro-2,3-dioxo-benzo[f]quinoxaline-7-sulfonamide]
- effect on potentiation of azide toxicity/glucose deprivation by GSH [6]: not and no effect

Molecule: N[C@@H](CS)C(=O)O [cysteine]
- effect on glutathione binding (GSH binding sites): selectively inhibited

Molecule: N[C@@H](CCC(=O)O)C(=O)O [glutamate]
- effect on glutathione binding (GSH binding sites): not

Molecule: [N-]=[N+]=[N-] [azide]
- toxicity of azide alone ([6]; 3 mM azide in glucose-free medium, 30 minutes): tolerated by most neurons

Molecule: CSC[C@H](NC(=O)CC[C@H](N)C(=O)O)C(=O)NCC(=O)O [SMG, S-methylglutathione]
- effect on potentiation of NMDA neurotoxicity by (sulfhydryl) reducing agents [1]: blocked the potentiation
- effect on potentiation of NMDA neurotoxicity by GSH [1]: blocks the potentiation; also recorded: completely blocked; also recorded: antagonized the effect of GSH
- effect on NMDA neurotoxicity (neuronal death, medium LDH) [1]: inactive per se
- effect on glutathione binding (GSH binding sites): displace glutathione binding

Molecule: oxidized glutathione [GSSG]
- effect on potentiation of NMDA neurotoxicity by (sulfhydryl) reducing agents [1]: antagonized
- effect on potentiation of NMDA neurotoxicity by mercaptoethanol [1]: completely blocked; also recorded: blocked the effect of mercaptoethanol
- effect on potentiation of NMDA neurotoxicity by mercaptoethanol ([1]; listed as oxidized glutathione): blocked
- effect on NMDA neurotoxicity (neuronal death, medium LDH) [1]: no significant effect; also recorded: did not attenuate NMDA neurotoxicity per se
- toxicity of compound alone [7]: nontoxic
- effect on azide neurotoxicity in glucose-free buffer (neuronal death) [6]: ineffective; also recorded: not increased
- effect on potentiation of azide toxicity/glucose deprivation by GSH [6]: most neurons have survived; also recorded: attenuates
- effect on potentiation of azide toxicity by mercaptoethanol [6]: attenuates
- effect on neuronal death induced by prolonged azide exposure ([6]; azide 60-90 min in the absence of GSH): no significant effect
- neuroprotection against azide plus GSH or mercaptoethanol ([6]; compound at 1-3 mM): robust effect
- neuroprotection against azide plus GSH or mercaptoethanol ([6]; equimolar compound (100 μM)): weak and somewhat variable neuroprotection
- effect on NMDA neurotoxicity [4]: attenuated NMDA neurotoxicity
- effect on native NMDA receptor responses (native NMDA receptor): inhibitory

B1: catalase: catalase, added at a concentration sufficient to inhibit the neurotoxicity of the pro-oxidant hemoglobin (protein, UniProt P00432 2-527, looked up)
Catalase: ADNRDPASDQMKHWKEQRAAQKPDVLTTGGGNPVGDKLNSLTVGPRGPLLVQDVVFTDEMAHFDRERIPERVVHAKGAGAFGYFEVTHDITRYSKAKVFEHIGKRTPIAVRFSTVAGESGSADTVRDPRGFAVKFYTEDGNWDLVGNNTPIFFIRDALLFPSFIHSQKRNPQTHLKDPDMVWDFWSLRPESLHQVSFLFSDRGIPDGHRHMNGYGSHTFKLVNANGEAVYCKFHYKTDQGIKNLSVEDAARLAHEDPDYGLRDLFNAIATGNYPSWTLYIQVMTFSEAEIFPFNPFDLTKVWPHGDYPLIPVGKLVLNRNPVNYFAEVEQLAFDPSNMPPGIEPSPDKMLQGRLFAYPDTHRHRLGPNYLQIPVNCPYRARVANYQRDGPMCMMDNQGGAPNYYPNSFSAPEHQPSALEHRTHFSGDVQRFNSANDDNVTQVRTFYLKVLNEEQRKRLCENIAGHLKDAQLFIQKKAVKNFSDVHPEYGSRIQALLDKYNEEKPKNAVHTYVQHGSHLSAREKANL
- effect on potentiation of NMDA neurotoxicity by GSH [1]: No effect was observed
